One test relates to Hedgehog pathway. Put plainly: C3H10T1/2 osteoblast differentiation assay (alkaline phosphatase readout, Shh-induced). Conditions: Mus musculus, C3H 10T1/2; C3H10T1/2 cells, sonic Hedgehog 250 ng/ml, AP activity normalized to total protein; approximate EC50 for inhibition. Format: cell-based. From the text:
Hedgehog pathway specific cancer cell killing effects may be ascertained using the following assay. C3H10T1/2 cells differentiate into osteoblasts when contacted with the sonic hedgehog peptide (Shh-N). Upon differentiation, these osteoblasts produce high levels of alkaline phosphatase (AP) which can be measured in an enzymatic assay (Nakamura, et al., BBRC (1997) 237:465). Compounds that block the differentiation of C3H10T1/2 into osteoblasts (a Shh dependent event) can therefore be identified by a reduction in AP production (van der Horst, et al., Bone (2003) 33:899). The assay details are described below. The results approximate (EC50 for inhibition) of the differentiation assay is shown below in Table 1.
Mouse embryonic mesoderm fibroblasts C3H10T1/2 cells (obtained from ATCC) were cultured in Basal MEM Media (Gibco/Invitrogen) supplemented with 10% heat inactivated FBS (Hyclone), 50 units/ml penicillin and 50 ug/ml streptomycin (Gibco/Invitrogen) at 37° C. with 5% CO2 in air atmosphere.
Alkaline Phosphatase Assay C3H10T1/2 cells were plated in 96 wells with a density of 8×10^3 cells/well. Cells were grown to confluence (72 hrs). After sonic Hedgehog (250 ng/ml), and/or compound treatment, the cells were lysed in 110 μL of lysis buffer (50 mM Tris pH 7.4, 0.1% TritonX100), plates were sonicated and lysates spun through 0.2 μm PVDF plates (Corning). 40 μL of lysates was assayed for AP activity in alkaline buffer solution (Sigma) containing 1 mg/ml p-Nitrophenyl Phosphate. After incubating for 30 min at 37° C., the plates were read on an Envision plate reader at 405 nm. Total protein was quantified with a BCA protein assay kit from Pierce according to manufacturer's instructions. AP activity was normalized against total protein.

A further test deals with BxPC-3 cells. Put plainly: BxPC-3 human pancreatic subcutaneous tumor model, tumor volume. Format: in vivo, mice. The settings on record: BxPC-3 subcutaneous, orally 40 mg/kg/day, 25 daily doses, p=0.0437. The protocol: (§1) The activity of Compound 10 was further tested in a human pancreatic model: BxPC-3 cells were implanted subcutaneously into the flanks of the right legs of mice. On day 42 post-tumor implant, the mice were randomized into two groups to receive either Vehicle (30% HPBCD) or Compound 10. Compound 10 was administered orally at 40 mg/kg/day. […] At the end of the study, the tumors were harvested 4 hours post the last dose to evaluate an on target response by q-RT-PCR analysis of the HH pathway genes.

For the next test, the system named is human Gli-1. Put plainly: q-RT-PCR of HH pathway genes in harvested BxPC-3 tumors, human Gli-1. Format: in vivo. Conditions: BxPC-3 tumors harvested 4 hours post last dose, 40 mg/kg/day oral. The protocol: as §1
Another test relates to murine Gli-1 mRNA. Put plainly: q-RT-PCR of HH pathway genes in harvested BxPC-3 tumors, murine Gli-1. Conditions: BxPC-3 tumors harvested 4 hours post last dose, 40 mg/kg/day oral. Format: in vivo. The protocol: as §1
Test [1] has as its system PANC-1 pancreatic cancer cells. Put plainly: PANC-1 orthotopic pancreatic cancer model, tumor weight. Conditions: 40 mg/kg/day, 5 weeks (35 doses), p=0.00014. Format: in vivo. The protocol: (§2) The activity of Compound 10 was also tested in another model of pancreatic cancer in which the PANC-1 pancreatic cancer cells were implanted into the orthotopic site, that is, directly into the pancreas. At the end of 5 weeks of dosing, 40 mg/kg/day (a total of 35 doses), tumor growth was monitored by weighing the tumors as they were removed from the animals. There was a statistically significant (p=0.00014) difference between the Compound 10 and vehicle treated animals which was seen as a 47% decrease in tumor weight in the Compound 10 treated animals. In addition, tumor tissue was harvested and RNA was isolated 24 hours after the final dose of Compound 10.

In another test the test system is human Gli-1 mRNA. Briefly: Gli-1 mRNA analysis of PANC-1 tumor tissue, human Gli-1. Format: in vivo. Conditions: RNA isolated 24 hours after final dose. The protocol:
as §2

A further test has as its system murine Gli-1. Put plainly: Gli-1 mRNA analysis of PANC-1 tumor tissue, murine Gli-1. Format: in vivo. The settings on record: RNA isolated 24 hours after final dose. The protocol: as §2
A further test concerns Gli-1 mRNA. Briefly: Ptch1/Hic1 medulloblastoma subcutaneous allograft model, Gli-1 mRNA expression. Format: in vivo, mouse. Conditions: single oral (PO) dose, subcutaneously implanted tumors, 8 hours post dose. The protocol:
(§3) The activity of Compound 10 was evaluated in a transgenic mouse model of medulloblastoma. Mice that are heterozygous for loss of function mutations in the tumor suppressors Patched1 (Ptch1) and Hypermethylated in Cancer (Hic1) develop spontaneous medulloblastoma. […] When passaged as subcutaneous allografts, these tumors grow aggressively and are Hedgehog pathway-dependent. This model was employed to evaluate the efficacy of orally administered Compound, and to correlate activity with drug exposure in plasma and tumors.

A further test has as its system medulloblastoma. Put plainly: Ptch1/Hic1 medulloblastoma subcutaneous allograft model, tumor growth. Format: in vivo, mouse. The protocol: as §3
The approximate effective daily oral dose for 50% inhibition of tumor growth (ED50) is […] 8 mg/kg.

Consider `CC1=C2C[C@H]3[C@@H](CC[C@@H]4Cc5nocc5C[C@@]43C)[C@@H]2CC[C@@]2(C1)O[C@@H]1C[C@H](C)CN[C@H]1[C@H]2C` [Compound 1], for which the EC50 in the test with Hedgehog pathway lay within 20 to 100 nM.

With `CC1=C2C[C@H]3[C@@H](CC[C@@H]4Cc5n[nH]cc5C[C@@]43C)[C@@H]2CC[C@@]2(C1)O[C@@H]1C[C@H](C)CN[C@H]1[C@H]2C` [Compound 10], in the test with Hedgehog pathway, the EC50 was under 20 nM. The “reduction of tumor volume growth compared to vehicle control” value in the test on BxPC-3 cells turned out to be 37%. The “human Gli-1 modulation (q-RT-PCR)” value in the test on human Gli-1 is “no modulation”. Also, in the test on murine Gli-1 mRNA, the “murine Gli-1 mRNA levels vs vehicle” value is recorded as “robust down-regulation”. Also, the “decrease in tumor weight vs vehicle” value in test [1] stood at 47%. Also, the “human Gli-1 mRNA modulation” value in the test with human Gli-1 mRNA is recorded as “no modulation”. In the test on murine Gli-1, the “murine Gli-1 modulation” value is given as “did reveal modulation”. In addition, the “HH pathway regulation measured by Gli-1 mRNA expression” value in the test on Gli-1 mRNA is recorded as “dose-dependent down-regulation”. Moreover, the 50% effective dose (ED50) in the test with medulloblastoma (Mus musculus, daily oral dosing, read-out: approximate effective daily oral dose for 50% inhibition of tumor growth (ED50)) was about 8 mg/kg. Besides, the tumor growth effect entry in the test on medulloblastoma (daily (QD) PO administration) is listed as “dose dependent inhibition of tumor growth, with frank tumor regression seen at higher doses”. Moreover, in the test with medulloblastoma (treated QD for 21 days), the “long term survival following cessation of treatment” value is on record as over 19 days and the “tumor re-growth after cessation of treatment” value is listed as “little to no tumor re-growth”.

In the test with Hedgehog pathway, `CC1=C2C[C@H]3[C@@H](CC[C@@H]4Cc5nn(C)cc5C[C@@]43C)[C@@H]2CC[C@@]2(C1)O[C@@H]1C[C@H](C)CN[C@H]1[C@H]2C` [Compound 11] came in with a 50% effective concentration (EC50) of 20 to 100 nM.

In turn, `CC1=C2C[C@H]3[C@@H](CC[C@@H]4Cc5nn(S(C)(=O)=O)cc5C[C@@]43C)[C@@H]2CC[C@@]2(C1)O[C@@H]1C[C@H](C)CN[C@H]1[C@H]2C` [Compound 12] gave an EC50 in the test on Hedgehog pathway of over 100 nM.

In the test with Hedgehog pathway, `CC1=C2C[C@H]3[C@@H](CC[C@@H]4Cc5n[nH]cc5C[C@@]43C)[C@@H]2CC[C@@]2(C1)O[C@@H]1C[C@H](C)CN(C)[C@H]1[C@H]2C` [Compound 13] gave a 50% effective concentration (EC50) of 20 to 100 nM.

In turn, `CC(=O)N1C[C@@H](C)C[C@H]2O[C@]3(CC[C@@H]4C(=C(C)C3)C[C@H]3[C@H]4CC[C@@H]4Cc5n[nH]cc5C[C@@]43C)[C@H](C)[C@@H]21` [Compound 14] came in with an EC50 in the test with Hedgehog pathway of 20 to 100 nM.

`CC1=C2C[C@H]3[C@@H](CC[C@@H]4Cc5n[nH]c(C(F)(F)F)c5C[C@@]43C)[C@@H]2CC[C@@]2(C1)O[C@@H]1C[C@H](C)CN[C@H]1[C@H]2C` [Compound 15]: the EC50 in the test with Hedgehog pathway was over 100 nM.

In the test with Hedgehog pathway, `C[C@@H]1CN[C@H]2[C@@H](C)[C@@]3(CC[C@@H]4C(C[C@H]5[C@H]4CC[C@@H]4Cc6[nH]ncc6C[C@@]45C)C3)O[C@@H]2C1` (stereo partly shown) [Compound 17] yielded a concentration giving a half-maximal response (EC50) of 20 to 100 nM.

In the case of `CC1=C2C[C@H]3[C@@H](CC[C@@H]4Cc5[nH]ncc5C[C@@]43C)[C@@H]2CC[C@]12O[C@@H]1C[C@H](C)CN[C@H]1[C@H]2C` [Compound 19], the EC50 in the test with Hedgehog pathway is over 100 nM.

`CC1=C2C[C@H]3[C@@H](CC[C@@H]4Cc5n[nH]cc5C[C@@]43C)[C@@H]2CC[C@@]2(C1)O[C@@H]1C[C@H](C)CN(O)[C@H]1[C@H]2C` [Compound 31] gave a half-maximal effective concentration (EC50) in the test with Hedgehog pathway of 20 to 100 nM.

As for `CC1=C2C[C@H]3[C@@H](CC[C@@H]4Cc5[nH][nH]c(=O)c5C[C@@]43C)[C@@H]2CC[C@@]2(C1)O[C@@H]1C[C@H](C)CN[C@H]1[C@H]2C` [Compound 32], the EC50 in the test with Hedgehog pathway is over 100 nM.

In the test with Hedgehog pathway, `CC1=C2C[C@H]3[C@@H](CC[C@@H]4Cc5[nH]ncc5C[C@@]43C)[C@@H]2CC[C@@]2(C1)O[C@@H]1C[C@H](C)CN(S(C)(=O)=O)[C@H]1[C@H]2C` [Compound 40] registered an EC50 of 20 to 100 nM.

Consider `CC1=C2C[C@H]3[C@@H](CC[C@@H]4Cc5nn(S(C)(=O)=O)cc5C[C@@]43C)[C@@H]2CC[C@@]2(C1)O[C@@H]1C[C@H](C)CN(S(C)(=O)=O)[C@H]1[C@H]2C` [Compound 41], for which the EC50 with Hedgehog pathway is over 100 nM.

Regarding `CC1=C2C[C@H]3[C@@H](CC[C@@H]4Cc5nc(C)sc5C[C@@]43C)[C@@H]2CC[C@@]2(C1)O[C@@H]1C[C@H](C)CN[C@H]1[C@H]2C` [Compound 42], the EC50 in the test on Hedgehog pathway is over 100 nM.

Consider `CC1=C2C[C@H]3[C@@H](CC[C@@H]4Cc5nn(S(=O)(=O)c6ccc(C)cc6)cc5C[C@@]43C)[C@@H]2CC[C@@]2(C1)O[C@@H]1C[C@H](C)CN[C@H]1[C@H]2C` [Compound 43], for which, in the test with Hedgehog pathway, the EC50 is over 100 nM.

`CC1=C2C[C@H]3[C@@H](CC[C@@H]4Cc5[nH]ncc5C[C@@]43C)[C@@H]2CC[C@@]2(C1)O[C@@H]1C[C@H](C)CN(S(N)(=O)=O)[C@H]1[C@H]2C` [Compound 44] displayed a concentration giving a half-maximal response (EC50) in the test on Hedgehog pathway of 20 to 100 nM.

`CC1=C2C[C@H]3[C@@H](CC[C@H]4Cc5[nH]ncc5C[C@@]43C)[C@@H]2CC[C@@]2(C1)O[C@@H]1C[C@H](C)CN[C@H]1[C@H]2C` [Compound 45] gave a 50% effective concentration (EC50) in the test on Hedgehog pathway of over 100 nM.

Source of the values: patent US8426436B2, “Heterocyclic cyclopamine analogs and methods of use thereof” (Infinity Discovery, Inc., priority 2007, dated 2013).
